Measurements from patent US20080107619A1, “Carbohydrate based cellulase inhibitors as feeding stimulants in termites” (University of Florida Research Foundation, Inc., priority 2006, published 2008).
Entries after “also recorded” stand apart in the source; their conditions may differ.

Tested on: R. flavipes worker termites
Test: No-choice Petri dish in vivo feeding bioassay (feeding and mortality, 24 days)
Conditions: for Average Feeding in mg per Live Termite (std. err.) days 1-8 / Average Feeding in mg per Live Termite (std. err.) days 9-16 / Average Feeding in mg per Live Termite (std. err.) days 17-24 / Normalized Avg. Totals: 1st ROUND (lab colony); for Normalized Avg. Totals: relative to control [0] average
Description: R. flavipes colonies were collected from the University of Florida campus during spring and summer 2006. Colonies were maintained in sealed plastic boxes (30×24×10 cm) at 22±1° C. and 69±1% RH. Colonies were maintained without soil and provisioned with moist brown paper towels and wood shims. Colonies that were acclimated under the above conditions for <2 months are referred to as “field colonies”, while those held for >6 months are referred to as “lab colonies”. Unless otherwise stated, all studies reported here were run with lab colonies.
Two different termite colonies were used. A lab colony was used in bioassays that tested the effects of CBI and FMG; this was the same colony used in cellulase optimization studies, cellulase distribution studies, and for […] determination. The other colony was a field colony, which was used to repeat the FMG assay along side FMCB. The no-choice feeding bioassay was derived from a previously-developed and slightly modified caste differentiation assay reported by M. E. Scharf, et al. in “Caste differentiation responses of two sympatric Reticulitermes termite species to juvenile hormone homologs and synthetic juvenoids in two laboratory assays.” Insectes Soc. […] Acad. Sci. USA, 103 (2006) 4499-504.
Prior to treatment, paper disks 30 were weighed. Treatments and controls were held in complete darkness at approximately 26±1° C. and 69±1% RH. The inhibitor concentrations tested were 75, 50, 25, 10, 5, 1, 0.5, and 0.1 mM (approximately […] wt/wt). For each inhibitor, paper disks were treated with 50 μl of a given concentration. Control disks received 50 μl methanol alone. Treated papers were allowed to dry in a fume hood for 30 min before placing in dishes, wetting with 25 μl water, and adding 15 termites.
Termite feeding on the filter papers was readily observable and quantifiable from the bioassays. Average feeding through the entire bioassay was summed within each replicate and calculated as a percentage of feeding relative to untreated controls, then averaged across replicates.
The experimental design consisted of three replicate dishes per concentration. All assays were carried out for a total of 24 days. Termite mortality and filter paper moisture were monitored every 4th day. Every 8th day, old paper disks were replaced with new ones. These new filter paper disks were treated with identical inhibitor concentrations. The removed filter paper disks 30, showing the results of termite feeding (FIG. 6), were dried and re-weighed. At the end of each assay, data were summarized as cumulative feeding per live termite and cumulative termite mortality. Data were analyzed by non-parametric t-tests (p<0.05) with commercially-available software for use in statistical analysis, designed by SAS Institute, Cary, N.C.
FIGS. 7A-7F provide graphic data on in vivo feeding bioassays conducted with the carbohydrate-based cellulase inhibitors to assess the impact on termite feeding and survivorship. Feeding results are expressed as the cumulative percent of untreated controls through 24 days. Mortality results are expressed as percent mortality after 24 days. […] Error bars represent standard error of the mean.

Question: `OC[C@@H]1[C@@H](O[C@@H]2O[C@H](CO)[C@@H](O)[C@H](O)[C@H]2O)[C@H](O)[C@@H](O)c2nccn21` [CBI, cellobioimidazole] was tested. Which “Average Feeding in mg per Live Termite (std. err.) days 1-8” value (0.1 mM test conc.) did it give?
Answer: 0.44 (0.04) mg per Live Termite

Question: What about the “Average Feeding in mg per Live Termite (std. err.) days 9-16” value (0.1 mM test conc.) of the same molecule?
Answer: 0.42 (0.11) mg per Live Termite

Question: And the “Average Feeding in mg per Live Termite (std. err.) days 17-24” value (0.1 mM test conc.)?
Answer: 0.45 (0.04) mg per Live Termite

Question: And the “Normalized Avg. Totals” value (0.1 mM test conc.)?
Answer: 1.98

Question: What about the “Average Feeding in mg per Live Termite (std. err.) days 1-8” value (0.5 mM test conc.) of the same molecule?
Answer: 0.45 (0.03) mg per Live Termite

Question: What about the “Average Feeding in mg per Live Termite (std. err.) days 9-16” value (0.5 mM test conc.) of the same molecule?
Answer: 0.51 (0.06) mg per Live Termite

Question: And the “Average Feeding in mg per Live Termite (std. err.) days 17-24” value (0.5 mM test conc.)?
Answer: 0.33 (0.04) mg per Live Termite

Question: And the “Normalized Avg. Totals” value (0.5 mM test conc.)?
Answer: 1.02

Question: What about the “Average Feeding in mg per Live Termite (std. err.) days 1-8” value (1 mM test conc.) of the same molecule?
Answer: 0.49 (0.12) mg per Live Termite

Question: What about the “Average Feeding in mg per Live Termite (std. err.) days 9-16” value (1 mM test conc.) of the same molecule?
Answer: 0.53 (0.03) mg per Live Termite

Question: And the “Average Feeding in mg per Live Termite (std. err.) days 17-24” value (1 mM test conc.)?
Answer: 0.35 (0.04) mg per Live Termite

Question: And the “Normalized Avg. Totals” value (1 mM test conc.)?
Answer: 1.05

Question: What about the “Average Feeding in mg per Live Termite (std. err.) days 1-8” value (5 mM test conc.) of the same molecule?
Answer: 0.66 (0.05) mg per Live Termite

Question: What about the “Average Feeding in mg per Live Termite (std. err.) days 9-16” value (5 mM test conc.) of the same molecule?
Answer: 0.55 (0.11) mg per Live Termite

Question: And the “Average Feeding in mg per Live Termite (std. err.) days 17-24” value (5 mM test conc.)?
Answer: 0.40 (0.89) mg per Live Termite

Question: And the “Normalized Avg. Totals” value (5 mM test conc.)?
Answer: 1.34

Question: What about the “Average Feeding in mg per Live Termite (std. err.) days 1-8” value (10 mM test conc.) of the same molecule?
Answer: 0.38 (0.05) mg per Live Termite

Question: And the “Average Feeding in mg per Live Termite (std. err.) days 9-16” value (10 mM test conc.)?
Answer: 0.43 (0.05) mg per Live Termite

Question: And the “Average Feeding in mg per Live Termite (std. err.) days 17-24” value (10 mM test conc.)?
Answer: 0.33 (0.05) mg per Live Termite

Question: And the “Normalized Avg. Totals” value (10 mM test conc.)?
Answer: 1.03

Question: And the “Average Feeding in mg per Live Termite (std. err.) days 1-8” value (25 mM test conc.)?
Answer: 0.23 (0.01) mg per Live Termite

Question: What about the “Average Feeding in mg per Live Termite (std. err.) days 9-16” value (25 mM test conc.) of the same molecule?
Answer: 0.47 (0.44) mg per Live Termite

Question: And the “Average Feeding in mg per Live Termite (std. err.) days 17-24” value (25 mM test conc.)?
Answer: 0.39 (0.01) mg per Live Termite

Question: What about the “Normalized Avg. Totals” value (25 mM test conc.) of the same molecule?
Answer: 0.95

Question: And the “Average Feeding in mg per Live Termite (std. err.) days 1-8” value (50 mM test conc.)?
Answer: 0.17 (0.03) mg per Live Termite

Question: What about the “Average Feeding in mg per Live Termite (std. err.) days 9-16” value (50 mM test conc.) of the same molecule?
Answer: 0.41 (0.05) mg per Live Termite

Question: What about the “Average Feeding in mg per Live Termite (std. err.) days 17-24” value (50 mM test conc.) of the same molecule?
Answer: 0.38 (0.03) mg per Live Termite

Question: And the “Normalized Avg. Totals” value (50 mM test conc.)?
Answer: 0.85

Question: And the highest mortality observed (0.05 and 0.2% concentrations, after 24 days, FIG. 10B)?
Answer: around 20%

Question: What about the “Average Feeding in mg per Live Termite (std. err.) days 1-8” value (75 mM test conc.) of the same molecule?
Answer: 0.16 (0.01) mg per Live Termite

Question: What about the “Average Feeding in mg per Live Termite (std. err.) days 9-16” value (75 mM test conc.) of the same molecule?
Answer: 0.24 (0.05) mg per Live Termite

Question: And the “Average Feeding in mg per Live Termite (std. err.) days 17-24” value (75 mM test conc.)?
Answer: 0.27 (0.01) mg per Live Termite

Question: And the “Normalized Avg. Totals” value (75 mM test conc.)?
Answer: 0.59

Question: And the mortality (1-5 mM (0.05-0.2% wt/wt), after 24 days)?
Answer: approximately 20%

Question: What about the “Effect on feeding (cumulative percent of untreated controls through 24 days)” value (across tested concentrations 0.1-75 mM, FIGS. 7A-7C, 8A-8B) of the same molecule?
Answer: both inhibitory and stimulatory effects, depending on concentration; also recorded: either inhibitory or stimulatory to feeding, depending on concentration

Question: And the “cumulative termite mortality (comparison between inhibitors)” value (after 24 days, FIGS. 7D-7F, 10A-10B)?
Answer: substantially greater than the mortality caused by FMG

Question: And the “mortality, one replicate” value (one replicate of the 0.05% concentration, after 24 days)?
Answer: over 30%
